# Data from PubChem BioAssay AID1963979 (Molecular Pharmacology Branch, DTP, NCI, 2024).
# Test system: 361931-004-R-J1-PDC multicell spheroid viability
# Assay: Anticancer human tumor 361931-004-R-J1-PDC patient-derived colon adenocarcinoma cell line growth inhibition [PI3K]
# Conditions: for viability, T/C: stronger effect = lower value
# Outline: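 Spheroid viability read-out. Co-cultures contained the tumor line plus HUVEC and human MSCs. Each agent was paired with a PI3K inhibitor (inavolisib, alpelisib, duvelisib, copanlisib) across half-log dilutions starting at clinical Cmax, or at 10 microM when Cmax was unknown.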
# [1] = curve of first compound, second compound 0.0316 µM
# [2] = curve of first compound, second compound 0.1 µM
# [3] = curve of first compound, second compound 0.316 µM
# [4] = curve of first compound, second compound 1 µM
# [5] = curve of first compound, second compound 3.16 µM
# [6] = curve of first compound, second compound 10 µM
# [7] = second compound 0.0316 µM, first compound 0.0316 µM
# [8] = second compound 0.0316 µM, first compound 0.1 µM
# [9] = second compound 0.0316 µM, first compound 0.316 µM
# [10] = second compound 0.0316 µM, first compound 1 µM
# [11] = second compound 0.0316 µM, first compound 3.16 µM
# [12] = second compound 0.0316 µM, first compound 10 µM
# [13] = second compound 0.1 µM, first compound 0.0316 µM
# [14] = second compound 0.1 µM, first compound 0.1 µM
# [15] = second compound 0.1 µM, first compound 0.316 µM
# [16] = second compound 0.1 µM, first compound 1 µM
# [17] = second compound 0.1 µM, first compound 3.16 µM
# [18] = second compound 0.1 µM, first compound 10 µM
# [19] = second compound 0.316 µM, first compound 0.0316 µM
# [20] = second compound 0.316 µM, first compound 0.1 µM
# [21] = second compound 0.316 µM, first compound 0.316 µM
# [22] = second compound 0.316 µM, first compound 1 µM
# [23] = second compound 0.316 µM, first compound 3.16 µM
# [24] = second compound 0.316 µM, first compound 10 µM
# [25] = second compound 1 µM, first compound 0.0316 µM
# [26] = second compound 1 µM, first compound 0.1 µM
# [27] = second compound 1 µM, first compound 0.316 µM
# [28] = second compound 1 µM, first compound 1 µM
# [29] = second compound 1 µM, first compound 3.16 µM
# [30] = second compound 1 µM, first compound 10 µM
# [31] = second compound 3.16 µM, first compound 0.0316 µM
# [32] = second compound 3.16 µM, first compound 0.1 µM
# [33] = second compound 3.16 µM, first compound 0.316 µM
# [34] = second compound 3.16 µM, first compound 1 µM
# [35] = second compound 3.16 µM, first compound 3.16 µM
# [36] = second compound 3.16 µM, first compound 10 µM
# [37] = second compound 10 µM, first compound 0.0316 µM
# [38] = second compound 10 µM, first compound 0.1 µM
# [39] = second compound 10 µM, first compound 0.316 µM
# [40] = second compound 10 µM, first compound 1 µM
# [41] = second compound 10 µM, first compound 3.16 µM
# [42] = second compound 10 µM, first compound 10 µM
# [43] = second compound 0.0316 µM, first compound 0.000316 µM
# [44] = second compound 0.0316 µM, first compound 0.001 µM
# [45] = second compound 0.0316 µM, first compound 0.00316 µM
# [46] = second compound 0.0316 µM, first compound 0.01 µM
# [47] = second compound 0.1 µM, first compound 0.000316 µM
# [48] = second compound 0.1 µM, first compound 0.001 µM
# [49] = second compound 0.1 µM, first compound 0.00316 µM
# [50] = second compound 0.1 µM, first compound 0.01 µM
# [51] = second compound 0.316 µM, first compound 0.000316 µM
# [52] = second compound 0.316 µM, first compound 0.001 µM
# [53] = second compound 0.316 µM, first compound 0.00316 µM
# [54] = second compound 0.316 µM, first compound 0.01 µM
# [55] = second compound 1 µM, first compound 0.000316 µM
# [56] = second compound 1 µM, first compound 0.001 µM
# [57] = second compound 1 µM, first compound 0.00316 µM
# [58] = second compound 1 µM, first compound 0.01 µM
# 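Note: spheroids exposed to agents for seven days before readout.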
compound,measurement,setting,value
C[C@@H](NC(=O)c1ncnc(N)c1Cl)c1ncc(C(=O)Nc2cc(C(F)(F)F)c(Cl)cn2)s1 + Cc1nc(NC(=O)N2CCCC2C(N)=O)sc1-c1ccnc(C(C)(C)C(F)(F)F)c1,IC50,[1],> 10000 nM
same,IC50,[2],> 10000 nM
same,IC50,[3],> 10000 nM
same,IC50,[4],> 10000 nM
same,IC50,[5],4930 nM
same,IC50,[6],410 nM
same,"viability, T/C",[7],104%
same,"viability, T/C",[8],106%
same,"viability, T/C",[9],80.8%
same,"viability, T/C",[10],97.3%
same,"viability, T/C",[11],92.9%
same,"viability, T/C",[12],85.5%
same,"viability, T/C",[13],110%
same,"viability, T/C",[14],104%
same,"viability, T/C",[15],89.1%
same,"viability, T/C",[16],106%
same,"viability, T/C",[17],92.9%
same,"viability, T/C",[18],80.5%
same,"viability, T/C",[19],102%
same,"viability, T/C",[20],100%
same,"viability, T/C",[21],99.3%
same,"viability, T/C",[22],89%
same,"viability, T/C",[23],101%
same,"viability, T/C",[24],78%
same,"viability, T/C",[25],104%
same,"viability, T/C",[26],95.8%
same,"viability, T/C",[27],93.3%
same,"viability, T/C",[28],88.8%
same,"viability, T/C",[29],84.2%
same,"viability, T/C",[30],60.9%
same,"viability, T/C",[31],89.9%
same,"viability, T/C",[32],84.8%
same,"viability, T/C",[33],76.1%
same,"viability, T/C",[34],70.4%
same,"viability, T/C",[35],67.1%
same,"viability, T/C",[36],31%
same,"viability, T/C",[37],77.8%
same,"viability, T/C",[38],59%
same,"viability, T/C",[39],55.6%
same,"viability, T/C",[40],41.7%
same,"viability, T/C",[41],22%
same,"viability, T/C",[42],3.55%
C#Cc1c(F)ccc2cc(O)cc(-c3ncc4c(N5CC6CCC(C5)N6)nc(OCC56CCCN5CC(F)C6)nc4c3F)c12 (centres undefined),"viability, T/C",compound 0.0316 µM,104% [middle of 4 runs]
same,"viability, T/C",compound 0.1 µM,106% [middle of 4 runs]
same,"viability, T/C",compound 0.316 µM,100% [middle of 4 runs]
same,"viability, T/C",compound 1 µM,104% [middle of 4 runs]
same,"viability, T/C",compound 3.16 µM,96.7% [middle of 4 runs]
same,IC50,curve of compound,> 10000 nM
CC(C)n1nc(-c2ccc3oc(N)nc3c2)c2c(N)ncnc21 + CC(Nc1ccc2c(c1)OCCn1cc(N3C(=O)OCC3C(F)F)nc1-2)C(N)=O,IC50,"curve of first compound, second compound 0.00316 µM",> 100 nM
same,IC50,"curve of first compound, second compound 0.01 µM",> 100 nM
same,IC50,[1],> 100 nM
same,IC50,[2],95.8 nM
same,IC50,[3],> 100 nM
same,IC50,[4],54.4 nM
same,"viability, T/C","second compound 0.00316 µM, first compound 0.000316 µM",102%
same,"viability, T/C","second compound 0.00316 µM, first compound 0.001 µM",106%
same,"viability, T/C","second compound 0.00316 µM, first compound 0.00316 µM",98.2%
same,"viability, T/C","second compound 0.00316 µM, first compound 0.01 µM",95.6%
same,"viability, T/C","second compound 0.00316 µM, first compound 0.0316 µM",101%
same,"viability, T/C","second compound 0.00316 µM, first compound 0.1 µM",59.9%
same,"viability, T/C","second compound 0.01 µM, first compound 0.000316 µM",109%
same,"viability, T/C","second compound 0.01 µM, first compound 0.001 µM",104%
same,"viability, T/C","second compound 0.01 µM, first compound 0.00316 µM",97.5%
same,"viability, T/C","second compound 0.01 µM, first compound 0.01 µM",91.6%
same,"viability, T/C","second compound 0.01 µM, first compound 0.0316 µM",95.8%
same,"viability, T/C","second compound 0.01 µM, first compound 0.1 µM",57.3%
same,"viability, T/C",[43],102%
same,"viability, T/C",[44],98.7%
same,"viability, T/C",[45],91.9%
same,"viability, T/C",[46],91.2%
same,"viability, T/C",[7],94.1%
same,"viability, T/C",[8],50.2%
same,"viability, T/C",[47],102%
same,"viability, T/C",[48],116%
same,"viability, T/C",[49],100%
same,"viability, T/C",[50],91.2%
same,"viability, T/C",[13],87.2%
same,"viability, T/C",[14],47.6%
same,"viability, T/C",[51],84.9%
same,"viability, T/C",[52],96.3%
same,"viability, T/C",[53],106%
same,"viability, T/C",[54],81.7%
same,"viability, T/C",[19],75.6%
same,"viability, T/C",[20],51.9%
same,"viability, T/C",[55],89%
same,"viability, T/C",[56],80.6%
same,"viability, T/C",[57],82.4%
same,"viability, T/C",[58],68.8%
same,"viability, T/C",[25],69.9%
same,"viability, T/C",[26],32.6%
CNC(=O)c1ccc(N2C(=S)N(c3ccc(C#N)c(C(F)(F)F)c3)C(=O)C2(C)C)cc1F + CC(Nc1ncnc2nc[nH]c12)c1cc2cccc(Cl)c2c(=O)n1-c1ccccc1,IC50,[1],> 10000 nM
same,IC50,[2],> 10000 nM
same,IC50,[3],> 10000 nM
same,IC50,[4],> 10000 nM
same,IC50,[5],> 10000 nM
same,IC50,[6],> 10000 nM
same,"viability, T/C",[7],97.8%
same,"viability, T/C",[8],103%
same,"viability, T/C",[9],97.7%
same,"viability, T/C",[10],96.6%
same,"viability, T/C",[11],103%
same,"viability, T/C",[12],85.7%
same,"viability, T/C",[13],110%
same,"viability, T/C",[14],102%
same,"viability, T/C",[15],97.8%
same,"viability, T/C",[16],93.7%
same,"viability, T/C",[17],106%
same,"viability, T/C",[18],103%
same,"viability, T/C",[19],102%
same,"viability, T/C",[20],93%
same,"viability, T/C",[21],97.9%
same,"viability, T/C",[22],105%
same,"viability, T/C",[23],101%
same,"viability, T/C",[24],97.3%
same,"viability, T/C",[25],101%
same,"viability, T/C",[26],106%
same,"viability, T/C",[27],99.4%
same,"viability, T/C",[28],104%
same,"viability, T/C",[29],106%
same,"viability, T/C",[30],97.2%
same,"viability, T/C",[31],101%
same,"viability, T/C",[32],109%
same,"viability, T/C",[33],97.1%
same,"viability, T/C",[34],101%
same,"viability, T/C",[35],104%
same,"viability, T/C",[36],93.4%
same,"viability, T/C",[37],107%
same,"viability, T/C",[38],105%
same,"viability, T/C",[39],104%
same,"viability, T/C",[40],94.2%
same,"viability, T/C",[41],112%
same,"viability, T/C",[42],96.3%
CC(=O)c1c(C)c2cnc(Nc3ccc(N4CCNCC4)cn3)nc2n(C2CCCC2)c1=O + Cc1nc(NC(=O)N2CCCC2C(N)=O)sc1-c1ccnc(C(C)(C)C(F)(F)F)c1,IC50,[1],> 100 nM
same,IC50,[2],> 100 nM
same,IC50,[3],> 100 nM
same,IC50,[4],> 100 nM
same,IC50,[5],> 100 nM
same,IC50,[6],56.4 nM
same,"viability, T/C",[43],110%
same,"viability, T/C",[44],105%
same,"viability, T/C",[45],101%
same,"viability, T/C",[46],98.7%
same,"viability, T/C",[7],99.6%
same,"viability, T/C",[8],78.2%
same,"viability, T/C",[47],109%
same,"viability, T/C",[48],106%
same,"viability, T/C",[49],96.8%
same,"viability, T/C",[50],94.8%
same,"viability, T/C",[13],90.7%
same,"viability, T/C",[14],81.5%
same,"viability, T/C",[51],106%
same,"viability, T/C",[52],96.6%
same,"viability, T/C",[53],104%
same,"viability, T/C",[54],97.8%
same,"viability, T/C",[19],83.1%
same,"viability, T/C",[20],83%
same,"viability, T/C",[55],97%
same,"viability, T/C",[56],93.3%
same,"viability, T/C",[57],84.9%
same,"viability, T/C",[58],91.9%
same,"viability, T/C",[25],90.2%
same,"viability, T/C",[26],65.2%
same,"viability, T/C","second compound 3.16 µM, first compound 0.000316 µM",80.7%
same,"viability, T/C","second compound 3.16 µM, first compound 0.001 µM",70.6%
same,"viability, T/C","second compound 3.16 µM, first compound 0.00316 µM",76.5%
same,"viability, T/C","second compound 3.16 µM, first compound 0.01 µM",77.7%
same,"viability, T/C",[31],65.7%
same,"viability, T/C",[32],52.6%
same,"viability, T/C","second compound 10 µM, first compound 0.000316 µM",66.7%
same,"viability, T/C","second compound 10 µM, first compound 0.001 µM",75.9%
same,"viability, T/C","second compound 10 µM, first compound 0.00316 µM",65%
same,"viability, T/C","second compound 10 µM, first compound 0.01 µM",58.4%
same,"viability, T/C",[37],56.5%
same,"viability, T/C",[38],45.1%
